# In PubChem BioAssay (NCI):
#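 48-hour exposure; five concentrations; linearly interpolated endpoints. GI50: concentration for 50% inhibition of growth. TGI: concentration producing complete growth inhibition.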
# How the values were obtained:
# Test in all cases: NCI tumour cell line growth inhibition, 48 h
# KM12 colon = system: KM12 colon
# MDA-MB-231 breast = system: MDA-MB-231 breast
# K-562 leukemia = system: K-562 leukemia
# UACC-257 melanoma = system: UACC-257 melanoma
# OVCAR-3 ovarian = system: OVCAR-3 ovarian
# SR leukemia = system: SR leukemia
# NCI/ADR-RES ovarian = system: NCI/ADR-RES ovarian
# SK-MEL-2 melanoma = system: SK-MEL-2 melanoma
# CAKI-1 renal = system: CAKI-1 renal
# 786-0 renal = system: 786-0 renal
# MDA-MB-435 = system: MDA-MB-435
# SW-620 colon = system: SW-620 colon
# HL-60(TB) leukemia = system: HL-60(TB) leukemia
# NCI-H522 lung = system: NCI-H522 lung
# SK-MEL-5 melanoma = system: SK-MEL-5 melanoma
# PC-3 prostate = system: PC-3 prostate
# UACC-62 melanoma = system: UACC-62 melanoma
# OVCAR-4 ovarian = system: OVCAR-4 ovarian
# COLO 205 colon = system: COLO 205 colon
# T-47D breast = system: T-47D breast
# EKVX NSCLC = system: EKVX NSCLC
# HCC-2998 colon = system: HCC-2998 colon
# CCRF-CEM leukemia = system: CCRF-CEM leukemia
# SF-268 CNS = system: SF-268 CNS
# SNB-19 CNS = system: SNB-19 CNS
# M14 melanoma = system: M14 melanoma
# SF-295 CNS = system: SF-295 CNS
# HT29 colon = system: HT29 colon
# HCT-116 colon = system: HCT-116 colon
# SF-539 CNS = system: SF-539 CNS
# LOX IMVI melanoma = system: LOX IMVI melanoma
# RXF 393 renal = system: RXF 393 renal
# DU-145 prostate = system: DU-145 prostate
# SN12C renal = system: SN12C renal
# HCT-15 colon = system: HCT-15 colon
# OVCAR-8 ovarian = system: OVCAR-8 ovarian
# SK-MEL-28 melanoma = system: SK-MEL-28 melanoma
# TK-10 renal = system: TK-10 renal
# HS 578T breast = system: HS 578T breast
# MALME-3M melanoma = system: MALME-3M melanoma
# MOLT-4 leukemia = system: MOLT-4 leukemia
# A549 NSCLC = system: A549 NSCLC
# NCI-H226 lung = system: NCI-H226 lung
# NCI-H23 lung = system: NCI-H23 lung
# SK-OV-3 ovarian = system: SK-OV-3 ovarian
# BT-549 breast = system: BT-549 breast
# ACHN renal = system: ACHN renal
# HOP-92 NSCLC = system: HOP-92 NSCLC
# SNB-75 CNS = system: SNB-75 CNS
# UO-31 renal = system: UO-31 renal
# U251 CNS = system: U251 CNS
# MCF7 breast = system: MCF7 breast
# A498 renal = system: A498 renal
# NCI-H460 lung = system: NCI-H460 lung
# HOP-62 NSCLC = system: HOP-62 NSCLC
# IGROV1 ovarian = system: IGROV1 ovarian
# OVCAR-5 ovarian = system: OVCAR-5 ovarian
# RPMI-8226 leukemia = system: RPMI-8226 leukemia
smiles,measurement,setting,value
CCSc1ccc2c(c1)N(CCCN1CCN(C)CC1)c1ccccc1S2,GI50,KM12 colon,1.87 µM
same,TGI,KM12 colon,3.56 µM
same,GI50,MDA-MB-231 breast,2 µM
same,TGI,MDA-MB-231 breast,4.95 µM
same,GI50,K-562 leukemia,2.39 µM
same,TGI,K-562 leukemia,> 100 µM
same,GI50,UACC-257 melanoma,1.81 µM
same,TGI,UACC-257 melanoma,3.48 µM
same,GI50,OVCAR-3 ovarian,2.48 µM
same,TGI,OVCAR-3 ovarian,7.12 µM
same,GI50,SR leukemia,2.71 µM
same,TGI,SR leukemia,8.65 µM
same,GI50,NCI/ADR-RES ovarian,3.68 µM
same,TGI,NCI/ADR-RES ovarian,16.8 µM
same,GI50,SK-MEL-2 melanoma,3.25 µM
same,TGI,SK-MEL-2 melanoma,8.49 µM
same,GI50,CAKI-1 renal,1.75 µM
same,TGI,CAKI-1 renal,4.19 µM
same,GI50,786-0 renal,2.61 µM
same,TGI,786-0 renal,7.6 µM
same,GI50,MDA-MB-435,1.72 µM
same,TGI,MDA-MB-435,3.47 µM
same,GI50,SW-620 colon,1.88 µM
same,TGI,SW-620 colon,3.65 µM
same,GI50,HL-60(TB) leukemia,1.83 µM
same,TGI,HL-60(TB) leukemia,4.61 µM
same,GI50,NCI-H522 lung,1.7 µM
same,TGI,NCI-H522 lung,3.5 µM
same,GI50,SK-MEL-5 melanoma,1.73 µM
same,TGI,SK-MEL-5 melanoma,3.16 µM
same,GI50,PC-3 prostate,2.74 µM
same,TGI,PC-3 prostate,9.64 µM
same,GI50,UACC-62 melanoma,1.67 µM
same,TGI,UACC-62 melanoma,3.34 µM
same,GI50,OVCAR-4 ovarian,3.63 µM
same,TGI,OVCAR-4 ovarian,12.3 µM
same,GI50,COLO 205 colon,1.76 µM
same,TGI,COLO 205 colon,3.37 µM
same,GI50,T-47D breast,2.17 µM
same,TGI,T-47D breast,5.79 µM
same,GI50,EKVX NSCLC,6.04 µM
same,TGI,EKVX NSCLC,22.6 µM
same,GI50,HCC-2998 colon,1.7 µM
same,TGI,HCC-2998 colon,3.28 µM
same,GI50,CCRF-CEM leukemia,2.56 µM
same,TGI,CCRF-CEM leukemia,7.1 µM
same,GI50,SF-268 CNS,3.96 µM
same,TGI,SF-268 CNS,16.9 µM
same,GI50,SNB-19 CNS,3.16 µM
same,TGI,SNB-19 CNS,12 µM
same,GI50,M14 melanoma,1.88 µM
same,TGI,M14 melanoma,3.67 µM
same,GI50,SF-295 CNS,2.2 µM
same,TGI,SF-295 CNS,5.97 µM
same,GI50,HT29 colon,1.81 µM
same,TGI,HT29 colon,3.44 µM
same,GI50,HCT-116 colon,2.04 µM
same,TGI,HCT-116 colon,4.4 µM
same,GI50,SF-539 CNS,1.83 µM
same,TGI,SF-539 CNS,3.76 µM
same,GI50,LOX IMVI melanoma,1.67 µM
same,TGI,LOX IMVI melanoma,3.16 µM
same,GI50,RXF 393 renal,2.82 µM
same,TGI,RXF 393 renal,8.88 µM
same,GI50,DU-145 prostate,3.82 µM
same,TGI,DU-145 prostate,14.2 µM
same,GI50,SN12C renal,4.54 µM
same,TGI,SN12C renal,18.4 µM
same,GI50,HCT-15 colon,2.06 µM
same,TGI,HCT-15 colon,4.98 µM
same,GI50,OVCAR-8 ovarian,4.39 µM
same,TGI,OVCAR-8 ovarian,10.9 µM
same,GI50,SK-MEL-28 melanoma,1.73 µM
same,TGI,SK-MEL-28 melanoma,3.27 µM
same,GI50,TK-10 renal,1.73 µM
same,TGI,TK-10 renal,3.27 µM
same,GI50,HS 578T breast,2 µM
same,TGI,HS 578T breast,5.56 µM
same,GI50,MALME-3M melanoma,1.58 µM
same,TGI,MALME-3M melanoma,3.35 µM
same,GI50,MOLT-4 leukemia,2.64 µM
same,TGI,MOLT-4 leukemia,6.53 µM
same,GI50,A549 NSCLC,3.21 µM
same,TGI,A549 NSCLC,10.5 µM
same,GI50,NCI-H226 lung,7.17 µM
same,TGI,NCI-H226 lung,27.5 µM
same,GI50,NCI-H23 lung,6.58 µM
same,TGI,NCI-H23 lung,21.3 µM
same,GI50,SK-OV-3 ovarian,10.4 µM
same,TGI,SK-OV-3 ovarian,24 µM
same,GI50,BT-549 breast,4.75 µM
same,TGI,BT-549 breast,18.9 µM
same,GI50,ACHN renal,2.49 µM
same,TGI,ACHN renal,6.83 µM
same,GI50,HOP-92 NSCLC,1.85 µM
same,TGI,HOP-92 NSCLC,7.06 µM
same,GI50,SNB-75 CNS,1.79 µM
same,TGI,SNB-75 CNS,5.5 µM
same,GI50,UO-31 renal,2.1 µM
same,TGI,UO-31 renal,10.1 µM
same,GI50,U251 CNS,2.05 µM
same,TGI,U251 CNS,4.64 µM
same,GI50,MCF7 breast,1.79 µM
same,TGI,MCF7 breast,3.43 µM
same,GI50,A498 renal,1.83 µM
same,TGI,A498 renal,10.2 µM
same,GI50,NCI-H460 lung,1.87 µM
same,TGI,NCI-H460 lung,3.53 µM
same,GI50,HOP-62 NSCLC,2.84 µM
same,TGI,HOP-62 NSCLC,8.15 µM
same,GI50,IGROV1 ovarian,2.19 µM
same,TGI,IGROV1 ovarian,5.41 µM
same,GI50,OVCAR-5 ovarian,2.19 µM
same,TGI,OVCAR-5 ovarian,6.44 µM
same,GI50,RPMI-8226 leukemia,2.46 µM
same,TGI,RPMI-8226 leukemia,6.96 µM
